Laboratory results: patent US8389568B2, “IDO inhibitors and methods of use thereof” (Lankenau Institute for Medical Research, priority 2007, dated 2013)

What follows are compounds tested against human IDO (Homo sapiens, UniProt P14902) (assay: IDO inhibition enzyme assay (N-formylkynurenine/kynurenine formation read at 490 nm)). Conditions: not given.
Sequence of human IDO (P14902 whole entry): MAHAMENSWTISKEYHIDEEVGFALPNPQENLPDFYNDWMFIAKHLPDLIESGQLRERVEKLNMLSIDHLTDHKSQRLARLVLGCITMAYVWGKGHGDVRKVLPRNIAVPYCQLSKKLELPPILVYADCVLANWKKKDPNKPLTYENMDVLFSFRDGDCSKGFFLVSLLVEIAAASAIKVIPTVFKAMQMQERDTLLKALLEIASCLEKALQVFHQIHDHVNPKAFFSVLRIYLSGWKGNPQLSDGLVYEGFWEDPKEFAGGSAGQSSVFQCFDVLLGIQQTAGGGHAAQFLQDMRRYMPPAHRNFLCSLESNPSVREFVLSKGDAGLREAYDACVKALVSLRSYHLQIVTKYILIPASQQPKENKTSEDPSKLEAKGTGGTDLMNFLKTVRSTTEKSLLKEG
Type: biochemical
Method: Compounds of the instant invention were analyzed for inhibition of human IDO. The assay was conducted according to a literature protocol, with ascorbic acid and methylene blue serving the role of reductant (Littlejohn et al. (2000) Protein Expression and Purification, 19:22-29; Sono et al. (1989) J. Biol. Chem., 264:1616-1622). […] The enzyme assay monitored for formation of N-formylkynurenine by hydrolyzing the formyl group and spectrophotometrically analyzing for the conjugated imine generated from kynurenine and 4-(dimethylamino) benzaldehyde.
Specifically, the inhibition assays were performed in a 96-well microtiter plate as previously described with a small modification (Littlejohn et al. (2000) Prot. Expr. Purif., 19:22-29). Briefly, the reaction mixture contained 50 mM potassium phosphate buffer (pH 6.5), 40 mM ascorbic acid, 400 μg/ml catalase, 20 μM methylene blue and purified recombinant IDO(1) optimized based on its activity. The reaction mixture was added to the substrate, L-tryptophan (L-Trp), and the inhibitor. The L-Trp was serially diluted from 200 to 25 μM and the inhibitors were tested at two concentrations, 200 and 400 μM. The reaction was carried out at 37° C. for 60 minutes and stopped by adding 30% (w/v) trichloroacetic acid. The plate was heated at 65° C. for 15 minutes to convert formylkynurenine to kynurenine and then was spun at 6000 g for 5 minutes. Finally 100 μl supernatant from each well was transferred to a new 96 well plate and mixed with 2% (w/v) p-dimethylamino-benzaldehyde in acetic acid. The yellow color generated from the reaction with kynurenine was measured at 490 nm using a Synergy HT microtiter plate reader (Bio-Tek, Winooski, Vt.). The data was analyzed using Graph Pad Prism 4 software (Graph Pad Software Inc., San Diego, Calif.).
With CC1(C)C=CC2=C(O1)C(=O)c1ccccc1C2=O [Compound 8, 2,2-dimethyl-2H-benzo[g]chromene-5,10-dione] the IC50 was 155 nM.

Same assay, conditions: purified recombinant IDO(1); L-Trp substrate; ascorbic acid/methylene blue reductant, catalase; pH 6.5; 37° C. for 60 minutes; read-out: IC50
Compound CC1(C)OC2=C(C(=O)c3ccccc3C2=O)[C@@H](O)[C@@H]1Br (relative stereo) [Compound 27] has an IC50 of 290 nM. Compound C=CCN[C@H]1C2=C(OC(C)(C)[C@H]1O)C(=O)c1ccccc1C2=O (stereo in doubt) [Compound 17, 4-(allylamino)-3-hydroxy-2,2-dimethyl-3,4-dihydro-2H-benzo[g]chromene-5,10-dione] has an IC50 of 183 nM. CCCCN[C@H]1C2=C(OC(C)(C)[C@H]1O)C(=O)c1ccccc1C2=O (stereo in doubt) [Compound 19, 4-(butylamino)-3-hydroxy-2,2-dimethyl-3,4-dihydro-2H-benzo[g]chromene-5,10-dione] showed an IC50 of 160 nM. CCCCN[C@H]1C2=C(OC(C)(C)[C@@H]1O)C(=O)c1ccccc1C2=O (stereo in doubt) [Compound 20, 4-(butylamino)-3-hydroxy-2,2-dimethyl-3,4-dihydro-2H-benzo[g]chromene-5,10-dione] was tested, and the IC50 was 70 nM. CO[C@H]1C2=C(OC(C)(C)[C@H]1O)C(=O)c1ccccc1C2=O (stereo in doubt) [Compound 21, 3-hydroxy-4-methoxy-2,2-dimethyl-3,4-dihydro-2H-benzo[g]chromene-5,10-dione] showed an IC50 of 976 nM. CO[C@H]1C2=C(OC(C)(C)[C@@H]1O)C(=O)c1ccccc1C2=O (stereo in doubt) [Compound 22, 3-hydroxy-4-methoxy-2,2-dimethyl-3,4-dihydro-2H-benzo[g]chromene-5,10-dione] was tested, and the IC50 was 3960 nM. Compound CC1(C)OC2=C(C(=O)c3ccccc3C2=O)[C@H](O)[C@@H]1O [Compound 12, (3S,4S)-3,4-dihydroxy-2,2-dimethyl-3,4-dihydro-2H benzo[g]chromene-5,10-dione] has an IC50 of 1500 nM. CC1(C)OC2=C(C(=O)c3ccccc3C2=O)C2OC21 (centres unmarked) [Compound 14, 2,2-dimethyl-9a,9b-dihydro-1aH-benzo[g]oxireno[2,3-c]chromene-4,9(2H,3aH)-dione] gave an IC50 of 3300 nM. CC1(C)C=CC2=C(O1)C(=O)c1cccc(O)c1C2=O [Compound 28, 6-hydroxy-2,2-dimethyl-2H-benzo[g]chromene-5,10-dione] was tested, and the IC50 was 58 nM. In the case of COC(=O)C1(C)C=CC2=C(O1)C(=O)c1ccccc1C2=O (centres unmarked) [Compound 29, methyl 2-methyl-5,10-dioxo-5,10-dihydro-2H-benzo[g]chromene-2-carboxylate], the IC50 is reported as 161 nM.
